Values joined by “and” are separate entries in the source; they are usually repeats but may differ in a detail not shown here. Equal entries are not always repeated. Toxic doses and inconclusive results are not listed. No stated cut-off is given here; in the data, active means T/C of 150% or more; inactive means T/C below 125%.
Test system: L1210 leukemia ip in BDF1 mice, survival T/C
Assay: NCI In Vivo Anticancer Drug Screen. Data for tumor model L1210 Leukemia (intraperitoneal) in B6D2F1 (BDF1) mice
Conditions: endpoint: mean survival time, higher = longer survival
Procedure, shortened: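 Ratio derived from survival: compound-dosed mice over vehicle-dosed mice, all bearing a transplantable tumor.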

[1] = dose: 25.0 mg/kg/injection, schedule: Q01DX009 (ip), vehicle: saline
[2] = dose: 50.0 mg/kg/injection, schedule: Q01DX009 (ip), vehicle: saline
[3] = dose: 100.0 mg/kg/injection, schedule: Q04DX003 (ip), vehicle: saline
[4] = dose: 200.0 mg/kg/injection, schedule: Q04DX003 (ip), vehicle: saline
[5] = dose: 400.0 mg/kg/injection, schedule: Q04DX003 (ip), vehicle: saline
[6] = dose: 100.0 mg/kg/injection, schedule: Q01DX001 (ip), vehicle: saline
[7] = dose: 200.0 mg/kg/injection, schedule: Q01DX001 (ip), vehicle: saline
[8] = dose: 400.0 mg/kg/injection, schedule: Q01DX001 (ip), vehicle: saline
[9] = dose: 100.0 mg/kg/injection, schedule: Q01DX001 (ip), vehicle: Klucel (hydroxypropylcellulose) (HPC)
[10] = dose: 100.0 mg/kg/injection, schedule: Q04DX003 (ip), vehicle: Klucel (hydroxypropylcellulose) (HPC)
[11] = dose: 200.0 mg/kg/injection, schedule: Q01DX001 (ip), vehicle: Klucel (hydroxypropylcellulose) (HPC)
[12] = dose: 200.0 mg/kg/injection, schedule: Q04DX003 (ip), vehicle: Klucel (hydroxypropylcellulose) (HPC)
[13] = dose: 400.0 mg/kg/injection, schedule: Q01DX001 (ip), vehicle: Klucel (hydroxypropylcellulose) (HPC)
[14] = dose: 400.0 mg/kg/injection, schedule: Q04DX003 (ip), vehicle: Klucel (hydroxypropylcellulose) (HPC)
[15] = dose: 6.25 mg/kg/injection, schedule: Q01DX009 (ip), vehicle: Klucel (hydroxypropylcellulose) (HPC)
[16] = dose: 12.5 mg/kg/injection, schedule: Q01DX009 (ip), vehicle: Klucel (hydroxypropylcellulose) (HPC)
[17] = dose: 25.0 mg/kg/injection, schedule: Q01DX009 (ip), vehicle: Klucel (hydroxypropylcellulose) (HPC)
[18] = dose: 100.0 mg/kg/injection, schedule: Q01DX009 (ip), vehicle: saline with Tween-80
[19] = dose: 100.0 mg/kg/injection, schedule: Q04DX003 (ip), vehicle: saline with Tween-80
[20] = dose: 200.0 mg/kg/injection, schedule: Q01DX009 (ip), vehicle: saline with Tween-80
[21] = dose: 200.0 mg/kg/injection, schedule: Q04DX003 (ip), vehicle: saline with Tween-80
[22] = dose: 100.0 mg/kg/injection, schedule: Q01DX009 (ip), vehicle: Klucel (hydroxypropylcellulose) (HPC)
[23] = dose: 50.0 mg/kg/injection, schedule: Q01DX009 (ip), vehicle: Klucel (hydroxypropylcellulose) (HPC)

Measured: T/C

Nc1ccc2ncccc2c1
inactive: [1] 97 % of control | [2] 93 % of control | dose: 100.0 mg/kg/injection, schedule: Q01DX009 (ip), vehicle: saline 105 % of control and 90 % of control | dose: 100.0 mg/kg/injection, schedule: Q04DX002 (ip), vehicle: alcohol 96 % of control | [3] 94 % of control | dose: 200.0 mg/kg/injection, schedule: Q01DX009 (ip), vehicle: saline 90 % of control | dose: 200.0 mg/kg/injection, schedule: Q04DX002 (ip), vehicle: alcohol 101 % of control | [4] 96 % of control | dose: 400.0 mg/kg/injection, schedule: Q04DX002 (ip), vehicle: alcohol 109 % of control | [5] 107 % of control

COC(=O)c1cscc1C=O
inactive: [6] 100 % of control | dose: 100.0 mg/kg/injection, schedule: Q04DX003 (ip), vehicle: acetone 102 % of control | [3] 100 % of control | [7] 104 % of control | dose: 200.0 mg/kg/injection, schedule: Q04DX003 (ip), vehicle: acetone 95 % of control | [4] 94 % of control | [8] 93 % of control | dose: 400.0 mg/kg/injection, schedule: Q04DX003 (ip), vehicle: acetone 93 % of control | [5] 93 % of control

COc1ccc2c(c1)CN(C)CC2
inactive: dose: 75.0 mg/kg/injection, schedule: Q01DX001 (ip), vehicle: other 108 % of control

Nc1nccc2snnc12
inactive: [9] 91 % of control | [10] 94 % of control | [11] 89 % of control | [12] 104 % of control | [13] 97 % of control | [14] 100 % of control

O=C(CBr)c1ccc(S(=O)(=O)c2ccccc2)cc1
inactive: dose: 5.0 mg/kg/injection, schedule: Q01DX001 (ip), vehicle: carboxymethylcellulose (CMC) 93 % of control | dose: 10.0 mg/kg/injection, schedule: Q01DX001 (ip), vehicle: carboxymethylcellulose (CMC) 93 % of control | dose: 20.0 mg/kg/injection, schedule: Q01DX001 (ip), vehicle: carboxymethylcellulose (CMC) 95 % of control

NC1CCC(CC2CCCCCC2)CC1 (stereo unspecified)
inactive: [15] 107 % of control | [16] 100 % of control | [17] 97 % of control and 98 % of control

CCC1N=C(N)N=C(N)N1c1ccc(Cl)cc1 (stereo unspecified)
inactive: dose: 75.0 mg/kg/injection, schedule: Q01DX001 (ip), vehicle: saline 100 % of control | dose: 150.0 mg/kg/injection, schedule: Q01DX001 (ip), vehicle: saline 98 % of control

CCCCCCCCCCNC(=O)C[n+]1cccc(C(=O)NC)c1
inactive: dose: 12.5 mg/kg/injection, schedule: Q04DX003 (ip), vehicle: saline 95 % of control | dose: 25.0 mg/kg/injection, schedule: Q04DX003 (ip), vehicle: saline 89 % of control

Cc1cc(O)cc(C)c1Cl
inactive: [18] 91 % of control | [19] 92 % of control | [20] 92 % of control | [21] 96 % of control | dose: 400.0 mg/kg/injection, schedule: Q01DX009 (ip), vehicle: saline with Tween-80 89 % of control | dose: 400.0 mg/kg/injection, schedule: Q04DX003 (ip), vehicle: saline with Tween-80 96 % of control

Cc1cccc(NC(=O)Oc2ccccc2C(N)=O)c1
inactive: [9] 94 % of control | [22] 94 % of control | dose: 100.0 mg/kg/injection, schedule: Q04DX002 (ip), vehicle: Klucel (hydroxypropylcellulose) (HPC) 94 % of control and 100 % of control | [10] 95 % of control | [11] 95 % of control | dose: 200.0 mg/kg/injection, schedule: Q01DX009 (ip), vehicle: Klucel (hydroxypropylcellulose) (HPC) 96 % of control | dose: 200.0 mg/kg/injection, schedule: Q04DX002 (ip), vehicle: Klucel (hydroxypropylcellulose) (HPC) 98 % of control | [12] 95 % of control | [13] 106 % of control | dose: 400.0 mg/kg/injection, schedule: Q01DX009 (ip), vehicle: Klucel (hydroxypropylcellulose) (HPC) 91 % of control and 92 % of control | dose: 400.0 mg/kg/injection, schedule: Q04DX002 (ip), vehicle: Klucel (hydroxypropylcellulose) (HPC) 94 % of control and 96 % of control | [14] 93 % of control

ClCC#Cc1ccccc1
inactive: dose: 12.0 mg/kg/injection, schedule: Q01DX009 (ip), vehicle: saline 100 % of control | [1] 100 % of control | [2] 101 % of control | [3] 103 % of control | [4] 92 % of control | [5] 91 % of control

O=[N+]([O-])c1cccc(N=Cc2ccccc2O)c1
inactive: [9] 93 % of control | [11] 88 % of control | [13] 88 % of control

O=c1nccc(Nc2ccccc2)[nH]1
inactive: [17] 98 % of control | [23] 93 % of control | [22] 98 % of control

ClC(Cl)(Cl)c1nc2nccnc2[nH]1
inactive: dose: 25.0 mg/kg/injection, schedule: Q04DX003 (ip), vehicle: saline with Tween-80 98 % of control | dose: 50.0 mg/kg/injection, schedule: Q04DX003 (ip), vehicle: saline with Tween-80 97 % of control | dose: 100.0 mg/kg/injection, schedule: Q04DX003 (ip), vehicle: saline sonified 96 % of control | [19] 110 % of control

CC1=NNC(c2ccco2)C1 (stereo unspecified)
inactive: [6] 91 % of control | [7] 94 % of control | [8] 100 % of control

Oc1ccc2ccccc2c1/C=C/c1ccncc1
inactive: [15] 96 % of control | [16] 97 % of control | dose: 25.0 mg/kg/injection, schedule: Q01DX001 (ip), vehicle: Klucel (hydroxypropylcellulose) (HPC) 98 % of control | [17] 100 % of control | dose: 50.0 mg/kg/injection, schedule: Q01DX001 (ip), vehicle: Klucel (hydroxypropylcellulose) (HPC) 102 % of control | [23] 89 % of control | [9] 105 % of control and 91 % of control

CCCCCCCCCCCCCCCCOc1ccc(-c2cc(=O)n(C)n2C)cc1
inactive: [10] 95 % of control | [12] 101 % of control | [14] 95 % of control

Cc1ccc(NCC(O)CN2CCCCC2)cc1 (stereo unspecified)
inactive: dose: 10.0 mg/kg/injection, schedule: Q01DX009 (ip), vehicle: other 104 % of control | dose: 20.0 mg/kg/injection, schedule: Q01DX009 (ip), vehicle: other 98 % of control | dose: 40.0 mg/kg/injection, schedule: Q01DX009 (ip), vehicle: other 92 % of control

CCCN(CCC)CCCCO
inactive: dose: 50.0 mg/kg/injection, schedule: Q01DX009 (ip), vehicle: saline with Tween-80 102 % of control | [18] 95 % of control | [19] 92 % of control | [20] 102 % of control | [21] 102 % of control
